Structures can show the parent of a compound that is named as a salt. Where two headings read alike, the source gives them in different places. Values belong to the compound of their own block, whether it stands above or below them.
How the values were obtained:
[1] = biological target: T1, human calcitonin receptor-related receptor (CRLR) and human RAMP1 (Homo sapiens, UniProt O60894+Q16602); test: GTPγS assay: CGRP-induced [35S]GTPγS incorporation into CHO-K1 membranes; type: biochemical
T1 construct: purchased Euroscreen, Brussels, Belgium; host or cells: CHO-K1 cells (transfected), membranes
T1 sequence (Q16602 23-461): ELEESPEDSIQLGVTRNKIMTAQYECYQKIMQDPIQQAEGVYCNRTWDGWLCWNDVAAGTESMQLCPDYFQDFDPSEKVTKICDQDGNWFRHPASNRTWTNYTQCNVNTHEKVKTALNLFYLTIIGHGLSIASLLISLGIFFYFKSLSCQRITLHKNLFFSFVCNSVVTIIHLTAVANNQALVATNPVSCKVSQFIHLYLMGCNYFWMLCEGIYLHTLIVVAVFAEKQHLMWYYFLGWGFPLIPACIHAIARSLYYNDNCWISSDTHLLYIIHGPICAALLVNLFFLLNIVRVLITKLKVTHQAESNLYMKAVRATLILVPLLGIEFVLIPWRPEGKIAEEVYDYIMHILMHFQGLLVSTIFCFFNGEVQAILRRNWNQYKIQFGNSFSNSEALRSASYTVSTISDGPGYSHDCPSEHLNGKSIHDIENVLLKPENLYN
T1 sequence (O60894 27-148 partner): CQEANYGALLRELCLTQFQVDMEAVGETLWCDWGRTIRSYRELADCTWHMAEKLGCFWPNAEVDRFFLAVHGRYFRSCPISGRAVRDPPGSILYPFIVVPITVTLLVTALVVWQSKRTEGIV
Protocol: The antagonistic action of the substituted cyclopentene compounds according to the invention was determined using this assay.
To this end, membranes from CHO-K1 cells (Euroscreen, Brussels, Belgium), which are transfected with the human calcitonin receptor-related receptor (CRLR, Genbank: U17473) and human receptor-associated modifying protein type 1 (RAMP1, Genbank AJ001014), are first of all rapidly thawed, diluted in 20 mM HEPES, 10 mM NaCl, 10 mM MgCl2, 1 mM EDTA pH 7.4 and resuspended by homogenisation. […] After 30 minutes' incubation at room temperature, 50 μl of 2 nM [35S]GTPγS (Amersham) are added and incubated for a further 30 minutes at room temperature and the assay-plate is centrifuged for 10 minutes at 3200 revolutions per minute. Bound activity was determined with a Wallac 1450 Microbeta Scintillation Counter (Wallac, Torku, Finland).
The inhibition of CGRP-induced incorporation of [^35S]GTPγS into membranes was determined in accordance with the above-described method.

[2] = biological target: T2, endogenous CGRP receptors in SK-N-MC cells (Homo sapiens, UniProt O60894+Q16602); test: Action on the formation of cAMP in the human neuroblastoma cell line SK-N-MC; type: cell-based; conditions: at 1 nM CGRP, compounds used in 10 μM concentrations
T2 construct: host or cells: SK-N-MC human neuroblastoma cells
T2 sequence (Q16602 23-461): as the sequence (Q16602 23-461) above
T2 sequence (O60894 27-148 partner): as the sequence (O60894 27-148 partner) above
Excerpt: The corresponding description is hereby introduced as a reference and is deemed to be part of the disclosure.

[3] = biological target: T3, CGRP1 receptors (Cavia porcellus, UniProt H0UV86+Q8R4C6); test: CGRP receptor affinity on isolated, spontaneously beating guinea pig atrium
T3 sequence (H0UV86 23-464): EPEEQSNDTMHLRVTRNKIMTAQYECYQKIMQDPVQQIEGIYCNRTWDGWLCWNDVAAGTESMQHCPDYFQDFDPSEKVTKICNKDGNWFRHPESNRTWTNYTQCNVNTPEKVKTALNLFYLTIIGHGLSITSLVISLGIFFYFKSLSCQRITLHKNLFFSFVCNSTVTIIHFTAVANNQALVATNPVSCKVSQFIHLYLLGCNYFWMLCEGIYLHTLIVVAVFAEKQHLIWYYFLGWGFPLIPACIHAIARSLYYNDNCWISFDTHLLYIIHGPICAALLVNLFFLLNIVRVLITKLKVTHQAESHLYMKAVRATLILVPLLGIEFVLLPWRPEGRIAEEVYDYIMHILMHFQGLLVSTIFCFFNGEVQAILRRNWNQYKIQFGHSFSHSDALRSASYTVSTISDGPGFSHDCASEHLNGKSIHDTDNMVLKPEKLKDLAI
T3 sequence (Q8R4C6 27-148): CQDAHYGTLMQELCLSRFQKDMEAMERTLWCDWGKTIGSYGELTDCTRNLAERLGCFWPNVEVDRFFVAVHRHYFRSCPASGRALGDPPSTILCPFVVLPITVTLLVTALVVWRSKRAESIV
Protocol: J. Physiol. Pharmacol. 75: 671–6,1997. The corresponding literature description is hereby introduced as a reference and is deemed to be part of the disclosure.
The exposure time for each concentration level is 2 minutes.
The validation and investigation of the substituted cyclopentene compounds according to the invention for their antagonistic action proceeded in accordance with the above-described method.

[4] = biological target: T4, recombinant human CGRP1 receptor (CRLR and RAMP1) (Homo sapiens, UniProt O60894+Q16602); test: Inhibition of binding of 3-[125I]-iodohistidyl10-α-CGRP to the human CGRP1 receptor (SPA); conditions: read-out: Inhibition in % of binding of 3-[125I]-iodohistidyl10 CGRP; at a concentration of 10 μM of the particular compound
T4 construct: purchased Euroscreen, Belgium ES420-M9; host or cells: CHO-K1 cell membranes
T4 sequence (Q16602 23-461): as the sequence (Q16602 23-461) above
T4 sequence (O60894 27-148 partner): as the sequence (O60894 27-148 partner) above
Protocol: (A) Investigation of the Inhibition of Binding of [^125I]-α-CGRP to the Human CGRP1 Receptor
Various CGRP receptor subtypes are known which in each case consist of a complex of CRLR (Calcitonin Receptor-Like Receptor), RAMP (Receptor-Associated Membrane Protein) and RCP (Receptor Component Protein).
Investigation of the inhibition of the binding of 3-[^125I]-iodohistidyl^10-α-CGRP is carried out on a human CGRP1 receptor, which is composed of the recombinant human constituents (Calcitonin Receptor-Like Receptor) CRLR and (Receptor-Associated Membrane Protein) RAMP1 (item no. ES420-M9, Euroscreen, Belgium).
The radioligand used is 3-[^125I]-iodohistidyl^10 Calcitonin Gene-Related Peptide (Amersham pharmacia biotech, code IM 184, 2000 Ci/mmol).
The binding studies are performed as SPA (scintillation proximity assay) batches with WGA beads (wheat germ agglutinin, Amersham pharmacia biotech, code: RPNQ 0001). The incubation buffer used is 50 mm tris pH 7.4 with 120 mM NaCl, 5 mM KCl and 5 mM MgCl2. 0.25 μg of protein of membrane suspension of CHO-K1 cells, 250 μg of beads and 10 μg of albumin (BSA) and the above-stated radioligand in a concentration of […] together with the compound according to the invention to be investigated in a concentration of 10 μM are introduced into each well of a microtitre plate.
After an incubation period of 90 minutes, radioactivity is measured in a Trilux detector (Wallac, Finland).
The inhibition of binding of 3-[^125I]-iodohistidyl^10 Calcitonin Gene-Related Peptide to the recombinant human CGRP1 receptor was determined in accordance with the method described above.

[5] = read-out: IC50 value for CGRP-antagonistic action, isolated guinea pig atria stimulated by h-α-CGRP

Compound: CN(C)CC1CC(c2ccc(S(C)(=O)=O)cc2)=C(c2ccc3c(c2)OCO3)C1=O.Cl (stereo not drawn)
melting point: 149 to 152 °C

Compound: Cc1cc(C2=C(c3ccc(S(C)(=O)=O)cc3)CC(CN(C)C)C2=O)ccc1F.Cl (stereo not drawn)
melting point: 95 to 98 °C (dec.)

Compound: CN(C)CC1CC(c2ccc(S(C)(=O)=O)cc2)=C(c2ccc(S(C)(=O)=O)cc2)C1=O.Cl (stereo not drawn)
melting point: 157 to 159 °C

Compound: CN(C)CC1CC(c2ccc(S(C)(=O)=O)cc2)=C(c2ccc3ccccc3c2)C1=O.Cl (stereo not drawn)
melting point: 163 to 165 °C

Compound: CC(C)c1cccc(C2=C(c3ccc(S(C)(=O)=O)cc3)CC(CN(C)C)C2=O)c1.Cl (stereo not drawn)
melting point: 131 to 133 °C

Compound: CN(C)CC1CC(c2ccc(S(C)(=O)=O)cc2)=C(c2cc(F)cc(F)c2)C1=O.Cl (stereo not drawn) [Example 1, 2-(3,5-Difluorophenyl)-5-dimethylaminomethyl-3-(4-methanesulfonylphenyl)-cyclopent-2-enone, hydrochloride]
inhibition at 12.5 µM [1]: 65.1%
Inhibition of cAMP formation [2]: 71%
IC50 [3, 5]: 13 µM
inhibition at 10 µM [4]: 40%

Compound: CN(C)CC1CC(c2ccc(S(C)(=O)=O)cc2)=C(c2cccc(O)c2)C1=O.Cl (stereo not drawn) [Example 3, 5-Dimethylaminomethyl-2-(3-hydroxyphenyl)-3-(4-methanesulfonylphenyl)-cyclopent-2-enone, hydrochloride]
inhibition at 12.5 µM [1]: 65.1%
Inhibition of cAMP formation [2]: 86%
IC50 [3, 5]: 77 µM
melting point: 162 to 164 °C
inhibition at 10 µM [4]: 66%

Compound: CN(C)CC1CC(c2ccc(S(C)(=O)=O)cc2)=C(c2cccc(F)c2)C1=O.Cl (stereo not drawn) [Example 5, 5-Dimethylaminomethyl-2-(3-fluorophenyl)-3-(4-methanesulfonylphenyl)-cyclopent-2-enone, hydrochloride]
inhibition at 12.5 µM [1]: 62.4%
Inhibition of cAMP formation [2]: 82%
IC50 [3, 5]: 25 µM
melting point: 154 to 158 °C
inhibition at 10 µM [4]: 58%

Compound: COc1cccc(C2=C(c3ccc(S(C)(=O)=O)cc3)CC(CN(C)C)C2=O)c1.Cl (stereo not drawn) [Example 13, 5-Dimethylaminomethyl-3-(4-methanesulfonylphenyl)-2-(3-methoxyphenyl)-cyclopent-2-enone, hydrochloride]
inhibition at 12.5 µM [1]: 63.9%
Inhibition of cAMP formation [2]: 88%
IC50 [3, 5]: 32 µM
melting point: 154 to 157 °C
inhibition at 10 µM [4]: 60%

Further lines, results first:

melting point: 160 to 163 °C
Compound: CN(C)CC1CC(c2ccc(S(C)(=O)=O)cc2)=C(c2cc(Cl)cc(Cl)c2)C1=O.Cl (stereo not drawn)

melting point: 182 to 184 °C
Compound: CN(C)CC1CC(c2ccc(S(C)(=O)=O)cc2)=C(c2ccc(C(C)(C)C)cc2)C1=O.Cl (stereo not drawn)

melting point: 149 to 151 °C
Compound: CCOc1cccc(C2=C(c3ccc(S(C)(=O)=O)cc3)CC(CN(C)C)C2=O)c1.Cl (stereo not drawn)

melting point: 139 to 142 °C
Compound: Cc1ccc(C2=C(c3ccc(S(C)(=O)=O)cc3)CC(CN(C)C)C2=O)cc1C.Cl (stereo not drawn)

melting point: 148 to 150 °C
Compound: Cc1cccc(C2=C(c3ccc(S(C)(=O)=O)cc3)CC(CN(C)C)C2=O)c1.Cl (stereo not drawn)

melting point: 156 to 158 °C
Compound: CN(C)CC1CC(c2ccc(S(C)(=O)=O)cc2)=C(c2cccc(Cl)c2)C1=O.Cl (stereo not drawn)

melting point: 127 to 129 °C
Compound: Cc1ccc(C2=C(c3ccc(S(C)(=O)=O)cc3)CC(CN(C)C)C2=O)cc1.Cl (stereo not drawn)

melting point: 98 to 100 °C
Compound: CN(C)CC1CC(c2ccc(S(C)(=O)=O)cc2)=C(c2ccc(O)cc2)C1=O.Cl (stereo not drawn)

melting point: 152 to 154 °C
Compound: CN(C)CC1CC(c2ccc(S(C)(=O)=O)cc2)=C(c2cccc(C(F)(F)F)c2)C1=O.Cl (stereo not drawn)

inhibition at 10 µM [4]: 26%
Compound: CN(C)CC1CC(c2ccc(S(C)(=O)=O)cc2)=C(c2ccc(C(C)(C)C)cc2)C1O (stereo not drawn) [Example 21, 2-(4-tert-Butylphenyl)-5-dimethylaminomethyl-3-(4-methanesulfonylphenyl)-cyclopent-2-enol, hydrochloride]

Reduction in the increase in the frequency of beating of the atria stimulated by h-α-CGRP (in words) ([3]; concentrations of 30, 100 and 300 nM): concentration-dependent reduction
IC50 ([3]; validation experiment, isolated guinea pig atria, read-out: IC50 (semimaximal action), reduction of h-α-CGRP-stimulated increase in frequency of beating): 0.019 µM
Compound: h-α-CGRP(8-37): human α-CGRP(8-37), CGRP1-antagonistic fragment used to validate the guinea pig atrium model [reference compound]

Source: patent publication US7109214B2, “Substituted cyclopentene compounds” (Grunenthal GmbH, priority 2004, dated 2006)
